# Experimental data reported in ChEMBL document CHEMBL5149985, “Discovery of cytotoxic natural products from Red Sea sponges: Structure and synthesis” (Eur J Med Chem, 2021).
# Counter-ions that a name gives are not always drawn.
# How the values were obtained:
# HepG2 [1] = experiment: Anticancer activity against human HepG2 cells assessed as inhibition of cell growth incubated for 72 hrs by SRB assay; type: functional, cell-based; conditions: HepG2, 72 h
# HCT-116 [2] = experiment: Anticancer activity against human HCT-116 cells assessed as inhibition of cell growth incubated for 72 hrs by SRB assay; type: functional, cell-based; conditions: HCT-116, 72 h
# MCF7 [3] = experiment: Anticancer activity against human MCF7 cells assessed as inhibition of cell growth incubated for 72 hrs by SRB assay; type: functional, cell-based; conditions: MCF7, 72 h
# MDA-MB-231 [4] = experiment: Anticancer activity against human MDA-MB-231 cells assessed as cell viability measured after 24 hrs by MTT assay; type: functional, cell-based; conditions: MDA-MB-231, 24 h
# P388 = experiment: Anticancer activity against mouse P388 cells assessed as cell growth inhibition; type: functional, cell-based
# HeLa = experiment: Anticancer activity against human HeLa cells assessed as inhibition of cell growth; type: functional, cell-based
# HT-29 = experiment: Anticancer activity against human HT-29 cells assessed as cell growth inhibition; type: functional, cell-based
# A549 = experiment: Anticancer activity against human A549 cells assessed as cell growth inhibition; type: functional, cell-based
# KB 3-1 = experiment: Anticancer activity against human KB 3-1 cells assessed as inhibition in cell growth; type: functional, cell-based
# HepG2 [5] = experiment: cells; conditions: Homo sapiens
# Description: Anticancer activity against human HepG2 cells assessed as inhibition of cell growth by MTT assay
# HCT-116 [6] = experiment: cells; conditions: Homo sapiens
# Description: Anticancer activity against human HCT-116 cells assessed as inhibition of cell growth by MTT assay
# Homo sapiens = organism: Homo sapiens; experiment: Inhibition of actin (unknown origin) polymerization at 1 uM incubated for 20 mins in presence of ATP by ELISA analysis relative to control
# [7] = Inhibition of actin (unknown origin) polymerization incubated for 20 mins in presence of ATP by ELISA analysis; design: species or system Homo sapiens
# MDA-MB-231 [8] = experiment: Anticancer activity against human MDA-MB-231 cells assessed as inhibition of cell growth incubated for 72 hrs by MTT assay; type: functional, cell-based; conditions: MDA-MB-231, 72 h
# [9] = Inhibition of actin (unknown origin) polymerization at 100 nM incubated for 20 mins in presence of ATP by ELISA analysis relative to control; conditions: Homo sapiens
# MCF7 [10] = experiment: Anticancer activity against human MCF7 cells assessed as inhibition of cell growth incubated for 72 hrs by MTT assay; type: functional, cell-based; conditions: MCF7, 72 h
smiles,measurement,setting,value
CC1(C)CCC[C@]2(C)[C@H]3C[C@@H](O)[C@]4(C)[C@H](C=O)C(C=O)=CC[C@H]4[C@]3(C)CC[C@@H]12,IC50,HepG2 [1],1700 nM
same,IC50,HCT-116 [2],3400 nM
same,IC50,MCF7 [3],3300 nM
CCSc1ccc(/C=C2\NC(=O)NC2=O)cc1,IC50,MDA-MB-231 [4],43400 nM
NC(=O)Cc1cc(Br)c(O)c(Br)c1O,IC50,P388,6.7 nM
C#C/C=C\CCCC/C=C\C#CC#CCCC/C=C\C#CCO [CALLYSPONGENOL C],IC50,P388,7.2 nM
same,IC50,HeLa,12.8 nM
CC(=O)CCCC(C)(C)C(=O)CC/C(C)=C/CC[C@@]1(C)CC[C@H]([C@H](C)C(=O)O)OO1 [AIKUPIKOXIDE A],IC50,HT-29,≥ 1 µg/mL
same,IC50,P388,≥ 1 µg/mL
same,IC50,A549,≥ 1 µg/mL
CC1=CC[C@H]2[C@H](CC[C@]2(C)O)C(C)(C)[C@@H]1CC[C@H]1[C@]2(C)CC[C@@H](O)O[C@H]2CC[C@@]1(C)O,IC50,KB 3-1,5.6 nM
C[C@@H]1CC[C@H]2[C@@H](/C1=C/C[C@H]1[C@]3(C)CCC(=O)C(C)(C)O[C@H]3CC[C@]1(C)O)C(C)(C)CC[C@]2(C)O,IC50,KB 3-1,4.7 nM
CC(=O)O[C@H]1C[C@H]2[C@@](C)(CC[C@H]3C(C)(C)CCC[C@]23C)[C@@H]2CC=C(C(C)=O)C[C@]21C,IC50,HepG2 [5],4.4 nM
same,IC50,HCT-116 [6],1.8 nM
CC(=O)O[C@@H]1C[C@@H]2[C@@]3(C)CCCC(C)(C)[C@@H]3CC[C@@]2(C)[C@@H]2CCC3=C(C(=O)OC3)[C@@]12C,IC50,HepG2 [1],17300 nM
same,IC50,HCT-116 [2],14400 nM
same,IC50,MCF7 [3],30700 nM
COC1=C(Br)[C@H]2OC(=O)C[C@]2(O)C=C1Br,IC50,MDA-MB-231 [4],18000 nM
CC1=C(CC[C@H]2[C@]3(C)CC[C@H](O)C(C)(C)O[C@H]3CC[C@@]2(C)O)[C@](C)(C/C=C/C(C)(C)OO)[C@H](O)CC1,IC50,KB 3-1,3.9 nM
CCN1C(=O)SC[C@H]1[C@@]1(OC)C[C@H]2C[C@@H](CC[C@H](C)/C=C\C=C\CC/C(C)=C\C(=O)O2)O1,inhibition,Homo sapiens,18%
same,IC50,[7],> 10000 nM
same,IC50,MDA-MB-231 [8],> 50000 nM
same,inhibition,[9],0%
COc1cccc2c1C(=O)c1c(O)c3c(c(O)c1C2=O)C[C@@](O)(C(=O)CO)C[C@@H]3O[C@H]1C[C@H](N)[C@H](O)[C@H](C)O1 [DOXORUBICIN HYDROCHLORIDE],IC50,P388,0.0114 nM
same,IC50,HepG2 [5],1 nM
same,IC50,HCT-116 [6],1.2 nM
CC[C@@]1(C)CCC[C@]2(C)[C@H]3C[C@H](OC(C)=O)[C@]4(C)CC(C(C)=O)=CC[C@H]4[C@]3(C)CC[C@@H]12,IC50,HepG2 [5],4.2 nM
CO[C@]1([C@@H]2CSC(=O)N2C2CCCC2)C[C@H]2C[C@@H](CC[C@H](C)/C=C\C=C\CC/C(C)=C\C(=O)O2)O1,inhibition,Homo sapiens,49%
same,IC50,[7],1050 nM
same,IC50,MDA-MB-231 [8],5070 nM
same,IC50,MCF7 [10],5300 nM
same,inhibition,[9],20%
COC(=O)[C@@H](C)[C@@H]1CC[C@](C)(CCC(=O)C(C)(C)CCCC(C)=O)OO1 [DIACARPEROXIDE B],IC50,HT-29,≥ 1 µg/mL
same,IC50,P388,≥ 1 µg/mL
same,IC50,A549,≥ 1 µg/mL
CC1=C(CC[C@H]2[C@]3(C)CC[C@H](O)C(C)(C)O[C@H]3CC[C@]2(C)O)[C@@H]2[C@H](CC1=O)[C@@](C)(O)CCC2(C)C [SIPHOLENOL K],IC50,KB 3-1,7.1 nM
CO[C@]1([C@@H]2CSC(=O)N2Cc2ccccc2)C[C@H]2C[C@@H](CC[C@H](C)/C=C\C=C\CC/C(C)=C\C(=O)O2)O1,inhibition,Homo sapiens,67%
same,IC50,[7],333 nM
same,IC50,MDA-MB-231 [8],6820 nM
same,IC50,MCF7 [10],780 nM
same,inhibition,[9],33%
C=C(OO)C(C)CC[C@@]1(C)C(CC[C@H]2[C@]3(C)CC[C@H](O)C(C)(C)O[C@H]3CC[C@@]2(C)O)=C(C)CC[C@H]1O (stereo partly drawn),IC50,KB 3-1,4.6 nM
CO[C@]1([C@@H]2CSC(=O)N2)C[C@H]2C[C@@H](CC[C@H](C)/C=C\C=C\CC/C(C)=C\C(=O)O2)O1,inhibition,Homo sapiens,21%
same,IC50,[7],9230 nM
same,IC50,MDA-MB-231 [8],23400 nM
same,inhibition,[9],6%
CC(=O)O[C@H]1C[C@H]2[C@]3(C)CC[C@H]4C(C)(C)CCC[C@]4(C)[C@H]3C[C@@H](O)[C@]2(C)C2=C1C(O)OC2=O (stereo partly drawn),IC50,HepG2 [1],9600 nM
same,IC50,HCT-116 [2],3500 nM
same,IC50,MCF7 [3],12700 nM
COc1ccc(CC(=O)N2C(=O)SC[C@H]2[C@@]2(OC)C[C@H]3C[C@@H](CC[C@H](C)/C=C\C=C\CC/C(C)=C\C(=O)O3)O2)cc1,inhibition,Homo sapiens,13%
same,IC50,[7],> 10000 nM
same,IC50,MDA-MB-231 [8],26200 nM
same,inhibition,[9],0%
